pKi: −log10 of the molar value.
Tests used:
DDR1 = DDR1 (Homo sapiens (Human), UniProt Q08345); assay: DDR1 LanthaScreen Europium Kinase Binding assay; details: binding; 5 nM DDR1, 20 nM Kinase Tracer 178, 1 hour at rt; Ki from IC50 by Cheng-Prusoff; read-out: Ki DDR1
Experimental: (§1) DDR1 and DDR2 binding assays were performed using Life Technologies LanthaScreen™ Europium Kinase Binding assay. The compounds were incubated with 5 nM DDR1 (Carna Biosciences) or 5 nM DDR2 (Life Technologies) for 1 hour at rt in white 384-well OptiPlate (PerkinElmer), containing 20 nM or 10 nM Kinase Tracer 178 respectively and 2 nM Europium labelled anti-GST antibody (Life Technologies) in assay buffer (50 mM HEPES pH 7.5, 10 mM MgCI2, 1 mM EGTA and 0.01% BRIJ35). The ratio of fluorescence emission 665 nm/615 nm after excitation at 340 nm was obtained using the Tecan Spark 20M plate reader. IC50 values were determined in GraphPad Prism 7.0 software, using 4 parameter model: log(inhibitor) vs. response. IC50 values were converted in Ki using the Cheng-Prusoff equation (Ki=IC50/(1+[Tracer]/Kd).
(§2) Compounds C1 and C2 were tested in the same binding assay described above.

DDR2 = DDR2 (Homo sapiens (Human), UniProt Q16832); assay: DDR2 LanthaScreen Europium Kinase Binding assay; details: binding; 5 nM DDR2, 10 nM Kinase Tracer 178, 1 hour at rt; Ki from IC50 by Cheng-Prusoff; read-out: Ki DDR2
Experimental: as §1, §2

Sequence of DDR2 (Q16832 22-855): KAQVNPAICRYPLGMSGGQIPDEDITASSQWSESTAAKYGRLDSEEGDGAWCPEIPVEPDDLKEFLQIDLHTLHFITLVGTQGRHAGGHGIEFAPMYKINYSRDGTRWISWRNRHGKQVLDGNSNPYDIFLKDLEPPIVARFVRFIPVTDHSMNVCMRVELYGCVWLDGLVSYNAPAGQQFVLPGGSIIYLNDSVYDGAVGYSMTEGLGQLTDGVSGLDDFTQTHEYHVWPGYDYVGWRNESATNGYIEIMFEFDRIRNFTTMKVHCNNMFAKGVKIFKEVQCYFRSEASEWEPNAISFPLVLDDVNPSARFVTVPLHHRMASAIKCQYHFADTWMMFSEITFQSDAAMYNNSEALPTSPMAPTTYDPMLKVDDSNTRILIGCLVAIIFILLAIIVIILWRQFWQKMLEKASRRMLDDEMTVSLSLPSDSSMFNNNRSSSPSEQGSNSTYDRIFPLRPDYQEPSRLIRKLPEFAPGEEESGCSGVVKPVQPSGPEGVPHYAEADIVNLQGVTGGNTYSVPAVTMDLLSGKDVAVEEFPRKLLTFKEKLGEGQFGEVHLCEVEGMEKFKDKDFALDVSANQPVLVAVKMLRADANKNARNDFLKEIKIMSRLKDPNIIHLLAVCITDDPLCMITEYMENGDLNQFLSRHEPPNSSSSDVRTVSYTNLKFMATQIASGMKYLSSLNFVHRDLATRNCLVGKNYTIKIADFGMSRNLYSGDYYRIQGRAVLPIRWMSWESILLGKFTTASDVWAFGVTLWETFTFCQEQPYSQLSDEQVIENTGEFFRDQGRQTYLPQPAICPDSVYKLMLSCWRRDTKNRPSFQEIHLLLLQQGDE
Sequence of DDR1 (Q08345 19-913): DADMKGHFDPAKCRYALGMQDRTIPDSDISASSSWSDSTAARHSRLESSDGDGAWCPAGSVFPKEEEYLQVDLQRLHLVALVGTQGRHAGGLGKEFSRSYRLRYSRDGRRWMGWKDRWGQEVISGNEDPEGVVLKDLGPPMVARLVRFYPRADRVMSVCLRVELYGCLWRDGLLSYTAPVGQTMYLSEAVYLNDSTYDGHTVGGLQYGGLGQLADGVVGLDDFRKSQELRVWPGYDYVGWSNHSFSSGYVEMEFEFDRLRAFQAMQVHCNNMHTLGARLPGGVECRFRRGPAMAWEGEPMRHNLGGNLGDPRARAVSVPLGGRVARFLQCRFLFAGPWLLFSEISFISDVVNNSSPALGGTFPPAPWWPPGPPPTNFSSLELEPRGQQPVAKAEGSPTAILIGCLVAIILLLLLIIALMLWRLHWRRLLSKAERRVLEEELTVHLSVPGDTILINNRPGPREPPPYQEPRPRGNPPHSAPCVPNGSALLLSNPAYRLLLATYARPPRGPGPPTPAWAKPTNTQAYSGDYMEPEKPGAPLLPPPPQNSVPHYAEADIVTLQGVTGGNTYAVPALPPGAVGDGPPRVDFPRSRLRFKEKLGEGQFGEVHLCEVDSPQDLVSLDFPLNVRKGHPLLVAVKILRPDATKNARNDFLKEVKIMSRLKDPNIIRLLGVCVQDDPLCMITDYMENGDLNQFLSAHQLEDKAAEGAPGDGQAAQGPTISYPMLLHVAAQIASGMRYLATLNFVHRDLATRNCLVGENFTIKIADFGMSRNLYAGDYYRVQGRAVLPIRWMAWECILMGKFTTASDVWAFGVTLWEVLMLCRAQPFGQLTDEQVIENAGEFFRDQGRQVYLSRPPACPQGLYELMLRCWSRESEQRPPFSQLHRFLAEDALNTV

SMILES	pKi (DDR1)	pKi (DDR2)
Cc1ccc(C(=O)Nc2cccc(C(F)(F)F)c2)cc1[C@@H]1CCN(c2cnc3ccnn3c2)C1 [Example 43, (S)-4-methyl-3-(1-(pyrazolo[1,5-a]pyrimidin-6-yl)pyrrolidin-3-yl)-N-(3-(trifluoromethyl)phenyl)benzamide]	7.22 to 7.60	7.22 to 7.60
Cc1ccc(C(=O)Nc2cccc(C(F)(F)F)c2)cc1[C@@H]1CCN(c2cncc(C(N)=O)c2)C1 [Example 19, (S)-5-(3-(2-methyl-5-((3-(trifluoromethyl)phenyl)carbamoyl)phenyl)pyrrolidin-1-yl)nicotinamide]	> 8.00	> 8.00
Cc1ccc(C(=O)Nc2cccc(C(F)(F)F)c2)cc1C1CCN(c2cncc(C(=O)NCCN(C)C)c2)C1 (stereo not drawn) [Example 7, N-(2-(dimethylamino)ethyl)-5-(3-(2-methyl-5-((3-(trifluoromethyl)phenyl)carbamoyl)phenyl)pyrrolidin-1-yl)nicotinamide]	> 8.00	> 8.00
Cc1ccc(C(=O)Nc2cccc(C(F)(F)F)c2)cc1C1CCN(c2cncc(OCCN3CCOCC3)c2)C1 (stereo not drawn) [Example 5, 4-methyl-3-(1-(5-(2-morpholinoethoxy)pyridin-3-yl)pyrrolidin-3-yl)-N-(3-(trifluoromethyl)phenyl)benzamide]	> 8.00	7.22 to 7.60
COCCn1cc(Nc2ccc(N3CC[C@@H](c4cc(C(=O)Nc5cccc(C(F)(F)F)c5)ccc4C)C3)cn2)cn1 [Example 47, (S)-3-(1-(6-((1-(2-methoxyethyl)-1H-pyrazol-4-yl)amino)pyridin-3-yl)pyrrolidin-3-yl)-4-methyl-N-(3-(trifluoromethyl)phenyl)benzamide]	7.60 to 8.00	7.22 to 7.60
CNC(=O)c1cc(N2CC[C@@H](c3cc(C(=O)Nc4cccc(C(F)(F)F)c4)ccc3C)C2)ccn1 [Example 25, (S)-N-methyl-4-(3-(2-methyl-5-((3-(trifluoromethyl)phenyl)carbamoyl)phenyl)pyrrolidin-1-yl)picolinamide]	> 8.00	> 8.00
CNC(=O)c1cncc(N2CCC(c3cc(C(=O)Nc4cccc(C(F)(F)F)c4)ccc3C)C2)c1 (stereo not drawn) [Example 10, N-methyl-5-(3-(2-methyl-5-((3-(trifluoromethyl)phenyl)carbamoyl)phenyl)pyrrolidin-1-yl)nicotinamide]	> 8.00	7.60 to 8.00
COCCOc1cncc(N2CC[C@@H](c3cc(C(=O)Nc4cccc(C(F)(F)F)c4)ccc3C)C2)c1 [Example 30, (S)-3-(1-(5-(2-methoxyethoxy)pyridin-3-yl)pyrrolidin-3-yl)-4-methyl-N-(3-(trifluoromethyl)phenyl)benzamide]	> 8.00	7.60 to 8.00
Cc1ccc(C(=O)Nc2cccc(C(F)(F)F)c2)cc1C1CCN(c2ccnc(C(N)=O)c2)C1 (single isomer, unassigned) [Example 54, 4-(3-(2-methyl-5-((3-(trifluoromethyl)phenyl)carbamoyl)phenyl)pyrrolidin-1-yl)picolinamide]	> 8.00	> 8.00
